Source: ChEMBL document CHEMBL3351685, “Synthesis and quantitative structure-activity relationship (QSAR) analysis of some novel oxadiazolo[3,4-d]pyrimidine nucleosides derivatives as antiviral agents” (Bioorg Med Chem Lett, 2015)
Active and inactive are the calls of the source. No cut-off for these calls is given here.

Legend:
[1] = test system: WISH; assay: Cytotoxicity against human WISH cells; format: cell-based
[2] = test system: Vesicular stomatitis virus; assay: Antiviral activity against vesicular stomatitis virus infected in human WISH cells; format: functional; conditions: for EC50: read-out: ED50 (the source's name)
[3] = Selectivity index, ratio of toxic concentration for human WISH cells to ED50 for vesicular stomatitis virus infected in human WISH cells; format: toxicity, cell-based; conditions: read-out: Selectivity Index

| Structure (SMILES) | Activity [1] [µmol/L] | EC50 [2] [µM] | ED50 [2] | selectivity ratio [3] |
| --- | --- | --- | --- | --- |
| CCn1c(=O)c2c(no[n+]2[O-])n([C@@H]2O[C@H](COC(C)=O)[C@@H](OC(C)=O)[C@H]2OC(C)=O)c1=O | 377 | 1230 |  |  |
| CCn1c(=O)c2c(no[n+]2[O-])n(COCCOC(C)=O)c1=O | 408 |  | inactive |  |
| CC(=O)OC[C@@H]1O[C@@H](n2c(=O)[nH]c(=O)c3c2no[n+]3[O-])[C@H](OC(C)=O)[C@H]1OC(C)=O | 380 | 154 |  |  |
| O=c1[nH]c(=O)n([C@@H]2O[C@H](CO)[C@@H](O)[C@H]2O)c2no[n+]([O-])c12 | 2095 | 78 |  | 26.9 |
| CC(=O)OC[C@H]1O[C@@H](n2c(=O)[nH]c(=O)c3c2no[n+]3[O-])[C@H](OC(C)=O)[C@@H]1OC(C)=O | 1459 | 345 |  |  |
| CCn1c(=O)c2c(no[n+]2[O-])n([C@@H]2O[C@H](COC(C)=O)[C@H](OC(C)=O)[C@H]2OC(C)=O)c1=O | 356 | 1040 |  |  |
| CC(=O)OC[C@@H]1O[C@@H](n2c(=O)n(C)c(=O)c3c2no[n+]3[O-])[C@H](OC(C)=O)[C@H]1OC(C)=O | 300 | 135 |  |  |
| CCn1c(=O)c2c(no[n+]2[O-])n(COC(COC(C)=O)COC(C)=O)c1=O | 1475 | 651 |  |  |
| O=c1[nH]c(=O)n(COCCO)c2no[n+]([O-])c12 | 2561 | 636 |  |  |
| CC(=O)OC[C@H]1O[C@@H](n2c(=O)n(C)c(=O)c3c2no[n+]3[O-])[C@H](OC(C)=O)[C@H]1OC(C)=O | 477 |  | inactive |  |
| O=c1[nH]c(=O)n([C@@H]2O[C@H](COCc3ccccc3)[C@@H](OCc3ccccc3)[C@H]2OCc2ccccc2)c2no[n+]([O-])c12 | 650 | 736 |  |  |
| CC(=O)OC[C@H]1O[C@@H](n2c(=O)[nH]c(=O)c3c2no[n+]3[O-])[C@H](OC(C)=O)[C@@H](OC(C)=O)[C@@H]1OC(C)=O | 1300 |  | inactive |  |
| CC(=O)OC[C@H]1O[C@H](n2c(=O)[nH]c(=O)c3c2no[n+]3[O-])[C@@H](OC(C)=O)[C@@H]1OC(C)=O | 398 | 691 |  |  |
| Cn1c(=O)c2c(no[n+]2[O-])n([C@@H]2O[C@H](COCc3ccccc3)[C@@H](OCc3ccccc3)[C@@H]2F)c1=O | 10 | 1500 |  |  |
| O=c1[nH]c(=O)n(COC(CO)CO)c2no[n+]([O-])c12 | 2279 | 555 |  |  |
| CCn1c(=O)c2c(no[n+]2[O-])n([C@@H]2O[C@@H](COC(C)=O)[C@H](OC(C)=O)[C@H]2OC(C)=O)c1=O | 20 |  | inactive |  |
| CC(=O)OCCOCn1c(=O)n(C)c(=O)c2c1no[n+]2[O-] | 2077 | 650 |  |  |
| O=c1[nH]cnc2c1ncn2[C@H]1CC[C@@H](CO)O1 [DIDANOSINE] | 2646 | 792 |  | 3.34 |
| CC(=O)OC[C@H]1O[C@H](n2c(=O)n(C)c(=O)c3c2no[n+]3[O-])[C@@H](OC(C)=O)[C@@H]1OC(C)=O | 378 |  | inactive |  |
| CC(=O)OC[C@H]1O[C@@H](n2c(=O)[nH]c(=O)c3c2no[n+]3[O-])[C@H](OC(C)=O)[C@H]1OC(C)=O | 387 |  | inactive |  |
| Cn1c(=O)c2c(no[n+]2[O-])n([C@@H]2O[C@H](COCc3ccccc3)[C@@H](OCc3ccccc3)[C@H]2OCc2ccccc2)c1=O | 1055 | 473 |  |  |
| CC(=O)OC[C@H]1O[C@@H](n2c(=O)n(C)c(=O)c3c2no[n+]3[O-])[C@H](OC(C)=O)[C@@H]1OC(C)=O | 1460 | 346 |  |  |
| CCn1c(=O)c2c(no[n+]2[O-])n([C@@H]2O[C@H](COC(C)=O)[C@@H](OC(C)=O)[C@H](OC(C)=O)[C@H]2OC(C)=O)c1=O | 1345 | 1210 |  |  |
| CCn1c(=O)c2c(no[n+]2[O-])n([C@@H]2O[C@H](COCc3ccccc3)[C@@H](OCc3ccccc3)[C@H]2OCc2ccccc2)c1=O | 1026 | 498 |  |  |
| CCn1c(=O)c2c(no[n+]2[O-])n([C@H]2O[C@H](COC(C)=O)[C@@H](OC(C)=O)[C@@H]2OC(C)=O)c1=O | 1411 | 574 |  |  |
| Nc1nc2c(ncn2COCCO)c(=O)[nH]1 [ACYCLOVIR] | 3414 | 1410 |  | 2.4 |
| CC(=O)OCCOCn1c(=O)[nH]c(=O)c2c1no[n+]2[O-] | 2083 | 651 |  |  |
